Assay results: article PMC3961306, “Comparison of the Cancer Gene Targeting and Biochemical Selectivities of All Targeted Kinase Inhibitors Approved for Clinical Use” (PLoS ONE, 2014)

Assays:
Test in all cases: Kinase profiling in a biochemical assay panel (mobility shift assays and ELISA), %-inhibition at 1 μM; selectivity entropy
[1] = biological target: panel of more than 300 wild-type and mutant kinases (313 kinase panel) (Homo sapiens, UniProt Q13164); conditions: kinase Erk5; compound at 1 μM
[2] = biological target: panel of more than 300 wild-type and mutant kinases (313 kinase panel) (Homo sapiens, UniProt Q15759)
[3] = biological target: panel of more than 300 wild-type and mutant kinases (313 kinase panel) (Homo sapiens, UniProt Q13233); conditions: kinase MAP3K1; compound at 1 μM
[4] = biological target: panel of more than 300 wild-type and mutant kinases (313 kinase panel) (Homo sapiens, UniProt Q9UBS0); conditions: kinase p70S6Kβ; 1 μM
[5] = biological target: T1, panel of more than 300 wild-type and mutant kinases (313 kinase panel) (Homo sapiens, UniProt P53778); conditions: kinase p38γ; 1 μM
T1 sequence (P53778 1-367): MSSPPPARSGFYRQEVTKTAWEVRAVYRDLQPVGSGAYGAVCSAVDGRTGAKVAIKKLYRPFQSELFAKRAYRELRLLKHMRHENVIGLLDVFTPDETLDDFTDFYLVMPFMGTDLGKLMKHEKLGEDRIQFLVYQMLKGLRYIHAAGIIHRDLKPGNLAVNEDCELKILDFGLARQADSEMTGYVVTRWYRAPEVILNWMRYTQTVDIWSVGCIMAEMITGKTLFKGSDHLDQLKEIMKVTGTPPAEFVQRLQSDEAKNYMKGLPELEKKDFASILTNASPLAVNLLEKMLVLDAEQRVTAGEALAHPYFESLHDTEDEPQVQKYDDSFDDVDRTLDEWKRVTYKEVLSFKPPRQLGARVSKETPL

[6] = biological target: panel of more than 300 wild-type and mutant kinases (313 kinase panel) (Homo sapiens, UniProt Q8N4C8)
[7] = biological target: T2, panel of more than 300 wild-type and mutant kinases (313 kinase panel) (Homo sapiens, UniProt P42680); conditions: kinase TEC; 1 μM
T2 sequence (P42680 1-631): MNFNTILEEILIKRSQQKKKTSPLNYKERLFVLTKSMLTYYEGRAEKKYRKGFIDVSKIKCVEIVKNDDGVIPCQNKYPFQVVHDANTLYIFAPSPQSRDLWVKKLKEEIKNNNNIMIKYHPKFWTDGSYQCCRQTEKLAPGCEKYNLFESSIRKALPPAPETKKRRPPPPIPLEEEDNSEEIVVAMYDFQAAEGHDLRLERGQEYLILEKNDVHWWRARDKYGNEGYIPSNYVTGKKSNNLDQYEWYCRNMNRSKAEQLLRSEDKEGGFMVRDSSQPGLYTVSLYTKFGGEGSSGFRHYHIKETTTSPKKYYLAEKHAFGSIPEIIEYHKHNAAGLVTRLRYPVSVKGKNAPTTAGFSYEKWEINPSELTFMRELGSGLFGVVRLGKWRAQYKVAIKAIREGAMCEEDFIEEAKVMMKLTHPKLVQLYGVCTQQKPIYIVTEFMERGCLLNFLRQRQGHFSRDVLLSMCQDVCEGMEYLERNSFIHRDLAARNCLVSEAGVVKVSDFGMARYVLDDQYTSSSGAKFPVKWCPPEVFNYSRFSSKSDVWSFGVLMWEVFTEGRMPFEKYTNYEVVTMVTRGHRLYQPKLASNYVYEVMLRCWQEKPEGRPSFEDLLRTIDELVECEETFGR

[8] = biological target: T3, panel of more than 300 wild-type and mutant kinases (313 kinase panel) (Homo sapiens, UniProt Q06418); conditions: kinase TYRO3; compound at 1 μM
T3 sequence (Q06418 41-890): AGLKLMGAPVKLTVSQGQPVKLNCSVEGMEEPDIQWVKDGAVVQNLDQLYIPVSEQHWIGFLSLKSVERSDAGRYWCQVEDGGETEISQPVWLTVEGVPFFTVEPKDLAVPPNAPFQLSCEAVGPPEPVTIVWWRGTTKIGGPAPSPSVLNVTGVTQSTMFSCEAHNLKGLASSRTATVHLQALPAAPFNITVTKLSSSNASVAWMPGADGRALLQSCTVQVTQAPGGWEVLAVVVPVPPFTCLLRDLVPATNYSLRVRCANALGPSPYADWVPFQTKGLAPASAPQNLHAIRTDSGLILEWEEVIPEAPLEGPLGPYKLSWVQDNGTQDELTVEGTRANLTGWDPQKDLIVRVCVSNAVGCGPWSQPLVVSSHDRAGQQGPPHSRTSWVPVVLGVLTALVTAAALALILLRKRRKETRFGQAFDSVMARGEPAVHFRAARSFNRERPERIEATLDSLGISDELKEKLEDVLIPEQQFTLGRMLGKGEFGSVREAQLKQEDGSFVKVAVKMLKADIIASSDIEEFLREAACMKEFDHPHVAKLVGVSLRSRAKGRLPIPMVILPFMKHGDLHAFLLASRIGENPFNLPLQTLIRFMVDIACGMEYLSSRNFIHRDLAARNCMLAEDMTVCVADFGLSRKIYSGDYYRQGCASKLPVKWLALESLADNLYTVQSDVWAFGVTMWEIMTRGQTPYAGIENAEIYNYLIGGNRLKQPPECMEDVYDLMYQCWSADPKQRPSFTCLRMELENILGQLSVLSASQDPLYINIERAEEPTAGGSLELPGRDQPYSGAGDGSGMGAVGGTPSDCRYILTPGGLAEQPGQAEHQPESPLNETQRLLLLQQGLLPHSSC

[9] = biological target: panel of more than 300 wild-type and mutant kinases (313 kinase panel) (Homo sapiens, UniProt Q9Y243); conditions: kinase AKT3; 1 μM compound
panel of more than 300 wild-type and mutant kinases (313 kinase panel) (Homo sapiens, UniProt Q9Y243), sequence (Q9Y243 whole entry, change not shown): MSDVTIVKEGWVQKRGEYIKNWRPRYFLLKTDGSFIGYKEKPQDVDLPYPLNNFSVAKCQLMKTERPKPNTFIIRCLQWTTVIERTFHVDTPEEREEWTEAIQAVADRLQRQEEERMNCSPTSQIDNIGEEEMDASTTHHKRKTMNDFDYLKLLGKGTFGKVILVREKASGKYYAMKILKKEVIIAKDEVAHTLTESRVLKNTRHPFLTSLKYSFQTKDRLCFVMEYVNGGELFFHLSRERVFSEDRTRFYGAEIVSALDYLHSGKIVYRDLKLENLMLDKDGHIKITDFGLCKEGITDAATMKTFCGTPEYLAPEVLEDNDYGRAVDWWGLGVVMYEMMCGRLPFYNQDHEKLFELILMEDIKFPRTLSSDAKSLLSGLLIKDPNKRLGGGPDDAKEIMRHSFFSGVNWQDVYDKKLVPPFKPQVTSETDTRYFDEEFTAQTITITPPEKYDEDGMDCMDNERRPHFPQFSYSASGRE

panel of more than 300 wild-type and mutant kinases (313 kinase panel) (Homo sapiens, UniProt Q13233), sequence (Q13233 whole entry, change not shown): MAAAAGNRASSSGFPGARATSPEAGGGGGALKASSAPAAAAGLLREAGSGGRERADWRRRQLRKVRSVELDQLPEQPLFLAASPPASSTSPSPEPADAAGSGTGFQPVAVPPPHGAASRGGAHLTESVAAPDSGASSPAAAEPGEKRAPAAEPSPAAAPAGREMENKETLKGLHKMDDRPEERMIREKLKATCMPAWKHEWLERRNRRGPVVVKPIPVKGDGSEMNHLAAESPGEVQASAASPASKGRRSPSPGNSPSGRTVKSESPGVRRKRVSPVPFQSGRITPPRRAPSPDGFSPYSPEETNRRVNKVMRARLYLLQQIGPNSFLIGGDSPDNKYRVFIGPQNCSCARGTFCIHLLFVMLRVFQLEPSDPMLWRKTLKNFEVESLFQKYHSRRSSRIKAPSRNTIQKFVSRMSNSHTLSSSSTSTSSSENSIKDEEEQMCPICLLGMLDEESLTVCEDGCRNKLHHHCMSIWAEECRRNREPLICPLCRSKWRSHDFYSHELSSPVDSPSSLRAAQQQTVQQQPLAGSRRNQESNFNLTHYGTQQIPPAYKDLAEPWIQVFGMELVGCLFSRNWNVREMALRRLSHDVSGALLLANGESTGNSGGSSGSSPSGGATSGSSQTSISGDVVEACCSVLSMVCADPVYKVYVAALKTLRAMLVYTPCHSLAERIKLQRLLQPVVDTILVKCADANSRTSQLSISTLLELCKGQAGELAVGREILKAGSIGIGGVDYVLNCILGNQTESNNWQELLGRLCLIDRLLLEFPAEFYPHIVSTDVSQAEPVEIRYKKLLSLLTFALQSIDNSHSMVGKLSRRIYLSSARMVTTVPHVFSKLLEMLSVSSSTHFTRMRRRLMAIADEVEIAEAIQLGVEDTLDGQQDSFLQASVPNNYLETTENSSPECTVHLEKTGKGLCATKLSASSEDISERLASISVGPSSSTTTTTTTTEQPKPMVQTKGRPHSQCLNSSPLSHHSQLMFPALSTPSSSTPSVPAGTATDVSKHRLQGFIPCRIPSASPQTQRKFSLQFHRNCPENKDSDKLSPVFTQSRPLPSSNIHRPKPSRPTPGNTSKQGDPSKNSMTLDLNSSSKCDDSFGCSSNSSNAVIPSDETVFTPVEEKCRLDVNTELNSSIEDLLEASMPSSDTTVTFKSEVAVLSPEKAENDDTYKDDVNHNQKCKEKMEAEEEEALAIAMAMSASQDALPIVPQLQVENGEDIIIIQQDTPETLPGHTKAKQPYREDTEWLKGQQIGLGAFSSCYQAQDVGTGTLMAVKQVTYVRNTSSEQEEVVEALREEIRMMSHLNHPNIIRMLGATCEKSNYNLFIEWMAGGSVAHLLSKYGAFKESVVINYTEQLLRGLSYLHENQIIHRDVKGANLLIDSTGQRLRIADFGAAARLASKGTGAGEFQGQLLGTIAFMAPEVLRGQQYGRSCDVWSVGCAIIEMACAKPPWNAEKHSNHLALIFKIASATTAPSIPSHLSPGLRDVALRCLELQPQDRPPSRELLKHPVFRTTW
panel of more than 300 wild-type and mutant kinases (313 kinase panel) (Homo sapiens, UniProt Q8N4C8), sequence (Q8N4C8 whole entry, change not shown): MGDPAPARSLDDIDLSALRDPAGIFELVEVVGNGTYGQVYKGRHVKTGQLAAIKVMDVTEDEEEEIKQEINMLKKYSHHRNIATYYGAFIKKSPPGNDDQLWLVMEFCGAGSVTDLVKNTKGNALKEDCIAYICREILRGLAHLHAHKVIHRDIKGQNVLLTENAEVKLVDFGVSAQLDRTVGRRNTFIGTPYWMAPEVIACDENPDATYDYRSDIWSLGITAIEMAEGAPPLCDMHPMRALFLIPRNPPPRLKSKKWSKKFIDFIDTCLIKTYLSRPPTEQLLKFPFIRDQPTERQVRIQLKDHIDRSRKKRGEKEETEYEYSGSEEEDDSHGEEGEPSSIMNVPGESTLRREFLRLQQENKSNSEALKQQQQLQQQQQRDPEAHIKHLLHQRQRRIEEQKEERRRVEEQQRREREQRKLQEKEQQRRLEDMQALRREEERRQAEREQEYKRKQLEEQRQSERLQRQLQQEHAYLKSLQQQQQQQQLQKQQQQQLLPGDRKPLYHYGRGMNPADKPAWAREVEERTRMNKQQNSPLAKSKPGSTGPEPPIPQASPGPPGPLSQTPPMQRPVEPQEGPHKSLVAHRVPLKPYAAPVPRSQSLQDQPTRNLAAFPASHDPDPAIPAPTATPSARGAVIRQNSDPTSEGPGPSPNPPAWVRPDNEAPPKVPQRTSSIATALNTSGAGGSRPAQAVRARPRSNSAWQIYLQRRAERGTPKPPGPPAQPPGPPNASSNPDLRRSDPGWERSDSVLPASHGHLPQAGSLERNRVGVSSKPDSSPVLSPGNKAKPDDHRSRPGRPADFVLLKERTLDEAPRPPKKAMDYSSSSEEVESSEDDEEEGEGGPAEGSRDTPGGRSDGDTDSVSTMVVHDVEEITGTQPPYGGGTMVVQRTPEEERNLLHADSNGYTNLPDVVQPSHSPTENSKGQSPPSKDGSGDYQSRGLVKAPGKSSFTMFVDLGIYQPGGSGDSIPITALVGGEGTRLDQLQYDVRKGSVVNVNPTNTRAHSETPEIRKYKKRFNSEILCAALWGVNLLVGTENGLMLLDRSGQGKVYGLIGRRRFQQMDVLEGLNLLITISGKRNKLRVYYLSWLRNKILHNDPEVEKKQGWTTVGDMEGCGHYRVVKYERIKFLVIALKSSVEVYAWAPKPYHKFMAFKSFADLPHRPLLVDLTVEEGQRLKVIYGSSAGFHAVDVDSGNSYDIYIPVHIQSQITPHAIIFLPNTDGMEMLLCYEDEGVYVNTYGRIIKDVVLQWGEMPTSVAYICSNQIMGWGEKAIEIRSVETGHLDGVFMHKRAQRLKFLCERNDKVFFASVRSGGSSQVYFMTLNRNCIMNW

SMILES	%-inhibition of Erk5 [1] [%]	%-inhibition of p38β ([2]; 1 µM) [%]	%-inhibition of MAP3K1 [3] [%]	%-inhibition of p70S6Kβ [4] [%]	%-inhibition of p38γ [5] [%]	%-inhibition of MINK ([6]; 1 µM) [%]	%-inhibition of TEC [7] [%]	%-inhibition of TYRO3 [8] [%]	%-inhibition, AKT3 [9] [%]	%-inhibition of p38β ([2]; kinase p38β, 1 μM) [%]	%-inhibition of MINK ([6]; kinase MINK, 1 μM) [%]
N#CC[C@H](C1CCCC1)n1cc(-c2ncnc3[nH]ccc23)cn1 [ruxolitinib]	6	-0.778	-10	11	-2.39	-6	18	-3	2	–	–
CO[C@H]1C[C@@H]2CC[C@@H](C)[C@@](O)(O2)C(=O)C(=O)N2CCCC[C@H]2C(=O)O[C@H]([C@H](C)C[C@@H]2CC[C@@H](OCCO)[C@H](OC)C2)CC(=O)[C@H](C)/C=C(\C)[C@@H](O)[C@@H](OC)C(=O)[C@H](C)C[C@H](C)/C=C/C=C/C=C/1C [everolimus]	-2.5	–	7	-11	-7	–	-4	-2.32	-3.39	-4.49	-7.49
CC(=O)Nc1cccc(-n2c(=O)n(C3CC3)c(=O)c3c(Nc4ccc(I)cc4F)n(C)c(=O)c(C)c32)c1 [trametinib]	-2.55	–	99	-1	0.684	–	-7.53	-2.65	-5.3	2.31	-1.8
CO[C@H]1C[C@@H]2CC[C@@H](C)[C@@](O)(O2)C(=O)C(=O)N2CCCC[C@H]2C(=O)O[C@H]([C@H](C)C[C@@H]2CC[C@@H](OC(=O)C(C)(CO)CO)[C@H](OC)C2)CC(=O)[C@H](C)/C=C(\C)[C@@H](O)[C@@H](OC)C(=O)[C@H](C)C[C@H](C)/C=C/C=C/C=C/1C [temsirolimus]	-5	–	6	-7	-5.48	–	-9	-1.34	-1.72	-2	-4
